# Laboratory results: ChEMBL document CHEMBL1909046, “DrugMatrix in vitro pharmacology data”
# Experiments:
# [1] = molecular target: Beta-2 adrenergic receptor (Homo sapiens, UniProt P07550); experiment: DRUGMATRIX: Adrenergic beta2 radioligand binding (ligand: [3H] CGP-12177); assay type: cell membranes, CHO, Membrane; conditions: Not Active = under 50% inhibition at 10 µM
# [2] = molecular target: Aldo-keto reductase family 1 member B1 (Rattus norvegicus, UniProt P07943); assay type: tissue-based, Lens of camera-type eye;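 further: inhibition of aldose reductase enzyme activity, measured with DL-glyceraldehyde as the substrate; in other assays of this panel Not Active means under 50% inhibition at 10 µM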
# Carbonic anhydrase 2 = Carbonic anhydrase 2 (Homo sapiens, UniProt P00918); experiment: DRUGMATRIX: Carbonic Anhydrase II enzyme inhibition (substrate: 4-Nitrophenyl acetate (4-NPA)); assay type: tissue-based; conditions: erythrocyte; Not Active = under 50% inhibition at 10 µM
# [3] = molecular target: T1, C-X-C chemokine receptor type 1 (Homo sapiens, UniProt P25024); further: in other assays of this panel Not Active means under 50% inhibition at 10 µM
# T1 sequence (P25024 whole entry): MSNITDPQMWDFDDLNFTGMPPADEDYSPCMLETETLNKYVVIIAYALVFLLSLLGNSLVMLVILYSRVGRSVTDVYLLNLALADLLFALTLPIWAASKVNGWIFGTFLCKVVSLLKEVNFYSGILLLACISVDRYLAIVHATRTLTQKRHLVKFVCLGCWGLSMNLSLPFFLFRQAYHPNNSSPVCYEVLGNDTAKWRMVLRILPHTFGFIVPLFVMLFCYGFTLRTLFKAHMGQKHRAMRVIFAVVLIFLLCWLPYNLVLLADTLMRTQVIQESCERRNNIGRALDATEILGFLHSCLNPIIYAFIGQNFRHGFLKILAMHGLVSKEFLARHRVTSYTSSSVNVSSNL
# [4] = molecular target: T2, Muscarinic acetylcholine receptor M5 (Homo sapiens, UniProt P08912); assay type: cell membranes, CHO-K1, Membrane; conditions: cho-k1; further: in other assays of this panel Not Active means under 50% inhibition at 10 µM
# T2 sequence (P08912 whole entry): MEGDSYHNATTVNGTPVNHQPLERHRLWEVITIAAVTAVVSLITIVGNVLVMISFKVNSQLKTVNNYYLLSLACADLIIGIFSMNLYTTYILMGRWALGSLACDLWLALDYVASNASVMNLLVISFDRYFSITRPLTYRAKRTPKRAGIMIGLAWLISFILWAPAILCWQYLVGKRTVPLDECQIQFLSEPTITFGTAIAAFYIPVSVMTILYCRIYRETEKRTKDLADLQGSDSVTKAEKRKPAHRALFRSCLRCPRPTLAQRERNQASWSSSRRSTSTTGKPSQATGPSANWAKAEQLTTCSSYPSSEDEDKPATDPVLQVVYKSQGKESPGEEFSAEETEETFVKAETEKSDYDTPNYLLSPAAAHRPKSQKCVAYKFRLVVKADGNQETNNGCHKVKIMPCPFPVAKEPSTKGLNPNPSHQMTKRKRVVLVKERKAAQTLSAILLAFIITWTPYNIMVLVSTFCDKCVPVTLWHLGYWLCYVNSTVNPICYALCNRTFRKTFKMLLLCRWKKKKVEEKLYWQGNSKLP
# Nitric oxide synthase 1 = Nitric oxide synthase 1 (Rattus norvegicus, UniProt P29476); assay type: tissue-based, Cerebellum; further: in other assays of this panel Not Active means under 50% inhibition at 10 µM
# [5] = molecular target: Protein kinase C alpha type (Homo sapiens, UniProt P17252); assay type: cell-based; conditions: sf9
# [6] = molecular target: Protein phosphatase 3 catalytic subunit alpha (Homo sapiens, UniProt Q08209); set-up: species or system Escherichia coli
# Nitric oxide synthase 1, sequence (P29476 whole entry): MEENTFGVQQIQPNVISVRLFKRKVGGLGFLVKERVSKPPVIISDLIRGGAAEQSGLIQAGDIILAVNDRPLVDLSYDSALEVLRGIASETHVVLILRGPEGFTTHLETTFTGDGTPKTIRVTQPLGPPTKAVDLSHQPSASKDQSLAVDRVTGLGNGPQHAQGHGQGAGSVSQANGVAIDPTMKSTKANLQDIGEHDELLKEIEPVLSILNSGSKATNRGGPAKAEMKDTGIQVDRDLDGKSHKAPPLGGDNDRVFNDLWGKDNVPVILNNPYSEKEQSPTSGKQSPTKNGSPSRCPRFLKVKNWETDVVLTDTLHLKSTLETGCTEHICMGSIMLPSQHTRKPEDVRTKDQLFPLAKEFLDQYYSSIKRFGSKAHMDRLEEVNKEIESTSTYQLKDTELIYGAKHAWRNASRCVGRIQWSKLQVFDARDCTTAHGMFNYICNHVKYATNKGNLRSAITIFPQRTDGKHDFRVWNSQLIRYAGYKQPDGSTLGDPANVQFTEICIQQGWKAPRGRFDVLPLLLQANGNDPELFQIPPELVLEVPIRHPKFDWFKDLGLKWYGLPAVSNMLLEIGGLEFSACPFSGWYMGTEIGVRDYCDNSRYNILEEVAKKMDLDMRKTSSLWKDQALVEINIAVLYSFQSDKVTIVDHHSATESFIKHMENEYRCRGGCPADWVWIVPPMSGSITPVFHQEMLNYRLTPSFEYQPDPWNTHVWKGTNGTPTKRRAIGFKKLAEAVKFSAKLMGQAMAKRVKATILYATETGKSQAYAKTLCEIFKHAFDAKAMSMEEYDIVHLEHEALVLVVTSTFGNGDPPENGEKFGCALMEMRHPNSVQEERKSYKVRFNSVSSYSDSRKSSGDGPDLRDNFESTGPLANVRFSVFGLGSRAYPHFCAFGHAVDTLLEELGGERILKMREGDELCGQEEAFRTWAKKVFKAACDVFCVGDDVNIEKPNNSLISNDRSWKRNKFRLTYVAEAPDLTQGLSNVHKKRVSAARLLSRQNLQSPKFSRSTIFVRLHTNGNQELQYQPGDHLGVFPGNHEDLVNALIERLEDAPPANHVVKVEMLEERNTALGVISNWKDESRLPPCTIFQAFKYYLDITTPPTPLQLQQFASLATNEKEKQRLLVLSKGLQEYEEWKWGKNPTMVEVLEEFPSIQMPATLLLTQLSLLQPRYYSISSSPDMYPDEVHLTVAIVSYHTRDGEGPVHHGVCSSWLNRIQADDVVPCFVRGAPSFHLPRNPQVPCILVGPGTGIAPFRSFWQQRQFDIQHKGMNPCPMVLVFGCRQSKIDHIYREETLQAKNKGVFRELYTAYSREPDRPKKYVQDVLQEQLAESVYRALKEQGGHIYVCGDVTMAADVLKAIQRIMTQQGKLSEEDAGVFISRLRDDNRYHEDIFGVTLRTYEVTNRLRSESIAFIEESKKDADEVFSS
Compound,IC50 ([1]; cho),Ki ([1]; cho),IC50 [2],Ki [2],IC50 (Carbonic anhydrase 2),Ki (Carbonic anhydrase 2),IC50 [3],Ki [3],IC50 [4],Ki [4],IC50 (Nitric oxide synthase 1),Ki (Nitric oxide synthase 1),IC50 [5],Ki [5],IC50 [6],Ki [6],IC50 ([1]; read-out: IC50) [nM],Ki ([1]; read-out: Ki) [nM]
NYSTATIN,Not Active,Not Active,Not Active,Not Active,Not Active,Not Active,Not Active,Not Active,Not Active,Not Active,Not Active,Not Active,Not Active,Not Active,Not Active,Not Active,–,–
Cc1cc2c(OCC(CNC(C)(C)C)OC(=O)c3ccccc3)cccc2[nH]1 (centres undefined) [BOPINDOLOL],–,–,Not Active,–,Not Active,–,Not Active,–,Not Active,–,Not Active,–,Not Active,–,Not Active,–,20,14
CC(=O)Oc1ccc(C(c2ccc(OC(C)=O)cc2)c2ccccn2)cc1 [BISACODYL],Not Active,–,Not Active,–,Not Active,–,Not Active,–,Not Active,–,Not Active,–,Not Active,–,Not Active,–,–,–
C[C@@H](CO)NC(=O)[C@@H]1C=C2c3cccc4[nH]cc(c34)C[C@H]2N(C)C1 [ERGONOVINE],Not Active,–,Not Active,–,Not Active,–,Not Active,–,Not Active,–,Not Active,–,Not Active,–,Not Active,–,–,–
CC(=O)O[C@H]1C(=O)[C@@]2(C)[C@H]([C@H](OC(=O)c3ccccc3)[C@]3(O)C[C@H](OC(=O)[C@H](O)[C@@H](NC(=O)c4ccccc4)c4ccccc4)C(C)=C1C3(C)C)[C@]1(OC(C)=O)CO[C@@H]1C[C@@H]2O [PACLITAXEL],Not Active,–,Not Active,–,Not Active,–,Not Active,–,Not Active,–,Not Active,–,Not Active,–,Not Active,–,–,–
Nc1ccn([C@@H]2O[C@H](CO)[C@@H](O)C2(F)F)c(=O)n1 [GEMCITABINE],Not Active,–,Not Active,–,Not Active,–,Not Active,–,Not Active,–,Not Active,–,Not Active,–,Not Active,–,–,–
COc1cc(N)c(Cl)cc1C(=O)NC1CCN(CCCOc2ccc(F)cc2)CC1OC (centres undefined) [CISAPRIDE],Not Active,–,Not Active,–,Not Active,–,Not Active,–,Not Active,–,Not Active,–,Not Active,–,Not Active,–,–,–
CCC1(CCC(C)C)C(=O)NC(=O)NC1=O [AMOBARBITAL],Not Active,–,Not Active,–,Not Active,–,Not Active,–,Not Active,–,Not Active,–,Not Active,–,Not Active,–,–,–
O=C(O)c1cccnc1Nc1cccc(C(F)(F)F)c1 [NIFLUMIC ACID],Not Active,–,Not Active,–,Not Active,–,Not Active,–,Not Active,–,Not Active,–,Not Active,–,Not Active,–,–,–
Cn1c(=O)c2[nH]cnc2n(C)c1=O.Cn1c(=O)c2[nH]cnc2n(C)c1=O.NCCN [AMINOPHYLLINE],Not Active,–,Not Active,–,Not Active,–,Not Active,–,Not Active,–,Not Active,–,Not Active,–,Not Active,–,–,–
GENTAMICIN,Not Active,Not Active,Not Active,Not Active,Not Active,Not Active,Not Active,Not Active,Not Active,Not Active,Not Active,Not Active,Not Active,Not Active,Not Active,Not Active,–,–
C=CCc1ccc(O)c(OC)c1 [EUGENOL],Not Active,–,Not Active,–,Not Active,–,Not Active,–,Not Active,–,Not Active,–,Not Active,–,Not Active,–,–,–
COc1ccc2[nH]cc(CCNC(C)=O)c2c1 [MELATONIN],Not Active,–,Not Active,–,Not Active,–,Not Active,–,Not Active,–,Not Active,–,Not Active,–,Not Active,–,–,–
N=C(N)NC(=O)Cc1c(Cl)cccc1Cl [GUANFACINE],Not Active,–,Not Active,–,Not Active,–,Not Active,–,Not Active,–,Not Active,–,Not Active,–,Not Active,–,–,–
O=C(N/N=C/c1ccc([N+](=O)[O-])o1)c1cc([N+](=O)[O-])cc([N+](=O)[O-])c1O [NIFURSOL],Not Active,–,Not Active,–,Not Active,–,Not Active,–,Not Active,–,Not Active,–,Not Active,–,Not Active,–,–,–
COc1cc2nc(N3CCN(C(=O)c4ccco4)CC3)nc(N)c2cc1OC [PRAZOSIN],Not Active,–,Not Active,–,Not Active,–,Not Active,–,Not Active,–,Not Active,–,Not Active,–,Not Active,–,–,–
CC(C)NNC(=O)c1ccncc1 [IPRONIAZID],Not Active,–,Not Active,–,Not Active,–,Not Active,–,Not Active,–,Not Active,–,Not Active,–,Not Active,–,–,–
COc1cc([C@@H]2c3cc4c(cc3[C@@H](O[C@@H]3O[C@@H]5CO[C@@H](C)O[C@H]5[C@H](O)[C@H]3O)[C@H]3COC(=O)[C@H]23)OCO4)cc(OC)c1O [ETOPOSIDE],Not Active,–,Not Active,–,Not Active,–,Not Active,–,Not Active,–,Not Active,–,Not Active,–,Not Active,–,–,–
CC(C(=O)O)c1cccc(Oc2ccccc2)c1 (centres undefined) [FENOPROFEN],Not Active,–,Not Active,–,Not Active,–,Not Active,–,Not Active,–,Not Active,–,Not Active,–,Not Active,–,–,–
COc1ccc2c3c1O[C@H]1C[C@@H](O)C=C[C@@]31CCN(C)C2 [GALANTAMINE],Not Active,–,Not Active,–,Not Active,–,Not Active,–,Not Active,–,Not Active,–,Not Active,–,Not Active,–,–,–
O=C(O)CCNC(=O)c1ccccc1 [BETAMIPRON],Not Active,–,Not Active,–,Not Active,–,Not Active,–,Not Active,–,Not Active,–,Not Active,–,Not Active,–,–,–
C#C[C@]1(OC(C)=O)CC[C@H]2[C@@H]3CCC4=C[C@@H](OC(C)=O)CC[C@@H]4[C@H]3CC[C@@]21C [ETHYNODIOL DIACETATE],Not Active,–,Not Active,–,Not Active,–,Not Active,–,Not Active,–,Not Active,–,Not Active,–,Not Active,–,–,–
Oc1cccc(O)c1O [PYROGALLOL],Not Active,–,Not Active,–,Not Active,–,Not Active,–,Not Active,–,Not Active,–,Not Active,–,Not Active,–,–,–
O=C/C=C/c1ccccc1,Not Active,–,Not Active,–,Not Active,–,Not Active,–,Not Active,–,Not Active,–,Not Active,–,Not Active,–,–,–
